According to patent US10350271B2, “Lipidated peptides for lowering blood glucose” (USTAV ORGANICKE CHEMIE A BIOCHEMIE AKADEMIE VED CR, V.V.I., priority 2014, dated 2019):
Ends that are not written are not given here. Peptide text beside a SMILES is read from it. * marks the point of attachment. Palmitoyl = CCCCCCCCCCCCCCCC(=O)*; Myristoyl = CCCCCCCCCCCCCC(=O)*

What was measured:
[1] = biological target: T1, rat PrRP receptor (Rattus norvegicus, UniProt Q64121); assay: Competitive binding in RC-4B/C rat pituitary cells (125I-rat PrRP31); conditions: for % of PrRP31, RC-4B/C rat pituitary cells: affinity relative to PrRP31; for Ki: displacement of 125I-rat PrRP31, read-out: Ki, RC-4B/C rat pituitary cells ^25I-rat PrRP31
T1 construct: host or cells: RC-4B/C rat pituitary cell line
T1 sequence (Q64121 1-370): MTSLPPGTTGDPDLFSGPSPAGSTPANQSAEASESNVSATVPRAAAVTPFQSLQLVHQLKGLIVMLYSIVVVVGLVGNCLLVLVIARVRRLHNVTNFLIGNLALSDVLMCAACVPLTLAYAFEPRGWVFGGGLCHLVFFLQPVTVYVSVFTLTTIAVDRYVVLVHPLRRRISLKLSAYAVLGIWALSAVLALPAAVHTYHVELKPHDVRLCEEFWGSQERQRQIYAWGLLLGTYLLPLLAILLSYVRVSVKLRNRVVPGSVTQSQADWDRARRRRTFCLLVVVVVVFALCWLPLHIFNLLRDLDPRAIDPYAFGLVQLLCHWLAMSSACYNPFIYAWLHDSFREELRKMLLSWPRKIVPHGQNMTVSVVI
Method in brief: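 Intact rat pituitary RC-4B/C cells incubated 60 min at room temperature with […] rat 125I-PrRP31 and unlabeled analog (10^−11 to 10^−4 mol·l^−1) in HEPES pH 7.4 buffer. Cell-bound radioactivity γ-counted after NaOH lysis; one-site competition fit.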

[2] = tested on: C57BL/6 mice; assay: Food intake in fasted mice after SC injection; format: in vivo; conditions: 5 mg/kg SC, 45 min after injection
Experimental: NMRI mice, C57BL/6 mice, and Wistar rats (AnLab, Prague, Czech Republic) were housed in a temperature of 23° C. and a daily cycle of 12 h light and dark (light from 6:00). They were given ad libitum water and a standard chow diet that contained 25, 9 and 66% of calories of protein, fat and carbohydrate respectively. Energy content of the feed was 3.4 kcal/g (St-1, Mlýn Kocanda, Czech Republic). Db/db mice and their controls (C57BL/6 background) were obtained from Taconic (Denmark), housed under the same conditions as described above, and fed by Altromin (Taconic, Denmark). ZDF-Lepr^fa/Crl, diabetic fa/fa male rats were obtained from Charles River (France), housed under same conditions as described above, and fed with a Purina 5008 diet (IPS Product Supplies Limited, UK). All experiments followed the ethical guidelines for animal experiments and the law of the Czech Republic Nr. 246/1992.
In experiments with C57BL/6 mice or Wistar rats, food intake was measured with overnight fasted animals in individual cages. Food was withdrawn 17 hours prior to injection of lipidated analog of prolactin releasing peptide (PrRP); free access to water was maintained. The administration of either saline, PrRP, or lipidated analogs was performed by SC injection at doses of 1-10 mg/kg (which corresponded to a volume of 0.2 ml/mouse and 0.1 ml/100 g weight of rat). Fifteen minutes after the lipidated analog of prolactin releasing peptide (PrRP) administration, the mice were given pre-weighed food. The food was then weighed every 30 minutes for 5-10 hours. The administration of each dose was performed at least twice, and each group of mice consisted of at least 6 mice.

[3] = biological target: T2, human PrRP receptor GPR10 (Homo sapiens, UniProt P49683); assay: Competitive binding in CHO cells transfected with human GPR10 (human 125I-PrRP31); conditions: for Ki: CHO cells, human 125I-PrRP31, read-out: Ki, GPR10 human receptor transfected in CHO cells; for % of PrRP31, GPR10 human receptor transfected in CHO cells: affinity relative to PrRP31
T2 construct: host or cells: CHO cells
T2 sequence (P49683 1-370): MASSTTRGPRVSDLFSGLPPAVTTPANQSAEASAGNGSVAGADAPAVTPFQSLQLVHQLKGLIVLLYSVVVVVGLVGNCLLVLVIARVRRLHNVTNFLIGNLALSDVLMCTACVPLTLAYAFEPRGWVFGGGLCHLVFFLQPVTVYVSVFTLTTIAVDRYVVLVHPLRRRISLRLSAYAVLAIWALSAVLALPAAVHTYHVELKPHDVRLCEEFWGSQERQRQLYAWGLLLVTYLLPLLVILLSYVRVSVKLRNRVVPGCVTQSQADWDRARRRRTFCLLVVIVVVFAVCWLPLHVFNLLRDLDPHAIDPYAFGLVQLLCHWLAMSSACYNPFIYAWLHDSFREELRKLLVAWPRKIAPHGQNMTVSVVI
Method in brief: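 GPR10-transfected CHO cells (40-80 thousand/well) incubated 60 min at room temperature with 5×10^-11 mol·l^-1 human 125I-PrRP31 and unlabeled analog at 10^-11 to 10^-4 mol·l^-1 in Tris binding buffer pH 7.4. Cells solubilized in 0.1 mol/l NaOH, γ-counted; one-site nonlinear regression fit.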

Compound	% of PrRP31, RC-4B/C rat pituitary cells [1] [%]	Ki [3] [nM]	% of PrRP31, GPR10 human receptor transfected in CHO cells [3] [%]	Displacement of rat 125I-PrRP binding ([1]; RC-4B/C cells, rat PrRP receptor)	Displacement of human 125I-PrRP binding ([3]; human GPR10 receptor)	Ki ([1]; RC-4B/C cells) [nM]	Food intake in mice % of saline-treated group [2] [%]
CCCCCCCCCCCCCC(=O)N[C@H](C(=O)N1CCC[C@H]1C(=O)N[C@@H](CC(=O)O)C(=O)N[C@H](C(=O)N[C@@H](CC(N)=O)C(=O)N1CCC[C@H]1C(=O)N[C@@H](C)C(=O)N[C@@H](Cc1c[nH]c2ccccc12)C(=O)N[C@@H](Cc1ccc(O)cc1)C(=O)N[C@H](C(=O)NCC(=O)N[C@@H](CCCNC(=N)N)C(=O)NCC(=O)N[C@H](C(=O)N[C@@H](CCCNC(=N)N)C(=O)N1CCC[C@H]1C(=O)N[C@H](C(=O)NCC(=O)N[C@@H](CCCNC(=N)N)C(=O)N[C@@H](Cc1ccccc1)C(N)=O)C(C)C)[C@@H](C)CC)[C@@H](C)O)[C@@H](C)CC)[C@@H](C)O [Analog 1] (Myristoyl-TPDINPAWYTGRGIRPVGRF-NH2)	632	2.93 ± 0.2	133				32
CCCCCCCCCCCCCC(=O)N[C@H](C(=O)N1CCC[C@H]1C(=O)N[C@@H](CC(=O)O)C(=O)N[C@H](C(=O)N[C@@H](CC(N)=O)C(=O)N1CCC[C@H]1C(=O)N[C@@H](C)C(=O)N[C@@H](Cc1c[nH]c2ccccc12)C(=O)N[C@@H](Cc1ccc(O)cc1)C(=O)N[C@@H](C)C(=O)N[C@@H](CO)C(=O)N[C@@H](CCCNC(=N)N)C(=O)NCC(=O)N[C@H](C(=O)N[C@@H](CCCNC(=N)N)C(=O)N1CCC[C@H]1C(=O)N[C@H](C(=O)NCC(=O)N[C@@H](CCCNC(=N)N)C(=O)N[C@@H](Cc1ccccc1)C(N)=O)C(C)C)[C@@H](C)CC)[C@@H](C)CC)[C@@H](C)O [Analog 2] (Myristoyl-TPDINPAWYASRGIRPVGRF-NH2)	1027		90	nmol·l^−1 range	nmol·l^−1 range		10
CCCCCCCCCCCCCC(=O)N[C@@H](CO)C(=O)N[C@@H](CCCNC(=N)N)C(=O)N[C@@H](C)C(=O)N[C@@H](Cc1c[nH]cn1)C(=O)N[C@@H](CCC(N)=O)C(=O)N[C@@H](Cc1c[nH]cn1)C(=O)N[C@@H](CO)C(=O)N[C@@H](CCSC)C(=O)N[C@@H](CCC(=O)O)C(=O)N[C@H](C(=O)N[C@@H](CCCNC(=N)N)C(=O)N[C@H](C(=O)N1CCC[C@H]1C(=O)N[C@@H](CC(=O)O)C(=O)N[C@H](C(=O)N[C@@H](CC(N)=O)C(=O)N1CCC[C@H]1C(=O)N[C@@H](C)C(=O)N[C@@H](Cc1c[nH]c2ccccc12)C(=O)N[C@@H](Cc1ccc(O)cc1)C(=O)N[C@H](C(=O)NCC(=O)N[C@@H](CCCNC(=N)N)C(=O)NCC(=O)N[C@H](C(=O)N[C@@H](CCCNC(=N)N)C(=O)N1CCC[C@H]1C(=O)N[C@H](C(=O)NCC(=O)N[C@@H](CCCNC(=N)N)C(=O)N[C@@H](Cc1ccccc1)C(N)=O)C(C)C)[C@@H](C)CC)[C@@H](C)O)[C@@H](C)CC)[C@@H](C)O)[C@@H](C)O [Analog 46] (Myristoyl-SRAHQHSMETRTPDINPAWYTGRGIRPVGRF-NH2)	657						20

Further lines, with some results ahead:

% of PrRP31, RC-4B/C rat pituitary cells [1] [%]	Ki [3] [nM]	% of PrRP31, GPR10 human receptor transfected in CHO cells [3] [%]	Displacement of rat 125I-PrRP binding ([1]; RC-4B/C cells, rat PrRP receptor)	Displacement of human 125I-PrRP binding ([3]; human GPR10 receptor)	Ki ([1]; RC-4B/C cells) [nM]	Compound	Food intake in mice % of saline-treated group [2] [%]
1202						CCCCCCCCCCCCCCCC(=O)N[C@@H](CO)C(=O)N[C@@H](CCCNC(=N)N)C(=O)N[C@@H](C)C(=O)N[C@@H](Cc1c[nH]cn1)C(=O)N[C@@H](CCC(N)=O)C(=O)N[C@@H](Cc1c[nH]cn1)C(=O)N[C@@H](CO)C(=O)N[C@@H](CCSC)C(=O)N[C@@H](CCC(=O)O)C(=O)N[C@H](C(=O)N[C@@H](CCCNC(=N)N)C(=O)N[C@H](C(=O)N1CCC[C@H]1C(=O)N[C@@H](CC(=O)O)C(=O)N[C@H](C(=O)N[C@@H](CC(N)=O)C(=O)N1CCC[C@H]1C(=O)N[C@@H](C)C(=O)N[C@@H](Cc1c[nH]c2ccccc12)C(=O)N[C@@H](Cc1ccc(O)cc1)C(=O)N[C@H](C(=O)NCC(=O)N[C@@H](CCCNC(=N)N)C(=O)NCC(=O)N[C@H](C(=O)N[C@@H](CCCNC(=N)N)C(=O)N1CCC[C@H]1C(=O)N[C@H](C(=O)NCC(=O)N[C@@H](CCCNC(=N)N)C(=O)N[C@@H](Cc1ccccc1)C(N)=O)C(C)C)[C@@H](C)CC)[C@@H](C)O)[C@@H](C)CC)[C@@H](C)O)[C@@H](C)O [Analog 47] (Palmitoyl-SRAHQHSMETRTPDINPAWYTGRGIRPVGRF-NH2)	2
	7.24 ± 0.13	54				CCCCCCCCCCCCCCCC(=O)NCCCC[C@H](NC(=O)[C@@H]1CCCN1C(=O)[C@H](CC(N)=O)NC(=O)[C@@H](NC(=O)[C@H](CC(=O)O)NC(=O)[C@@H]1CCCN1C(=O)[C@@H](NC(=O)[C@H](CCCNC(=N)N)NC(=O)[C@@H](NC(=O)[C@H](CCC(=O)O)NC(=O)[C@H](CCSC)NC(=O)[C@H](CO)NC(=O)[C@H](Cc1c[nH]cn1)NC(=O)[C@H](CCCNC(=N)N)NC(=O)[C@H](Cc1c[nH]cn1)NC(=O)[C@@H](NC(=O)[C@H](CCCNC(=N)N)NC(=O)[C@@H](N)CO)[C@@H](C)O)[C@@H](C)CC)[C@@H](C)O)[C@@H](C)CC)C(=O)N[C@@H](Cc1c[nH]c2ccccc12)C(=O)N[C@@H](Cc1ccc(O)cc1)C(=O)N[C@@H](C)C(=O)N[C@@H](CO)C(=O)N[C@@H](CCCNC(=N)N)C(=O)NCC(=O)N[C@H](C(=O)N[C@@H](CCCNC(=N)N)C(=O)N1CCC[C@H]1C(=O)N[C@H](C(=O)NCC(=O)N[C@@H](CCCNC(=N)N)C(=O)N[C@@H](Cc1ccccc1)C(N)=O)C(C)C)[C@@H](C)CC [Analog 51] (H-SRTHRHSMEIRTPDINPK(Palmitoyl)WYASRGIRPVGRF-NH2)	20
207					2.38 ± 0.19	CC[C@H](C)[C@H](NC(=O)CNC(=O)[C@H](CCCNC(=N)N)NC(=O)[C@H](CO)NC(=O)[C@H](C)NC(=O)[C@H](Cc1ccc(O)cc1)NC(=O)[C@H](Cc1c[nH]c2ccccc12)NC(=O)[C@H](C)NC(=O)[C@@H]1CCCN1C(=O)[C@H](CC(N)=O)NC(=O)[C@@H](NC(=O)[C@H](CC(=O)O)NC(=O)[C@@H]1CCCN1C(=O)[C@@H](NC(=O)[C@H](CCCNC(=N)N)NC(=O)[C@@H](NC(=O)[C@H](CCC(=O)O)NC(=O)[C@H](CCSC)NC(=O)[C@H](CO)NC(=O)[C@H](Cc1c[nH]cn1)NC(=O)[C@H](CCCNC(=N)N)NC(=O)[C@H](Cc1c[nH]cn1)NC(=O)[C@@H](NC(=O)[C@H](CCCNC(=N)N)NC(=O)[C@@H](N)CO)[C@@H](C)O)[C@@H](C)CC)[C@@H](C)O)[C@@H](C)CC)C(=O)N[C@@H](CCCNC(=N)N)C(=O)N1CCC[C@H]1C(=O)N[C@H](C(=O)NCC(=O)N[C@@H](CCCNC(=N)N)C(=O)N[C@@H](Cc1ccccc1)C(N)=O)C(C)C [Human PrRP31, reference compound]	100
277					1.78 ± 0.46	TPDINPAWYASRGIRPVGRF-NH2 [Human PrRP20, reference compound]	100
